Laboratory results: patent US6824967B2, “Method of preparing dye solution, and methods of producing silver halide emulsion and silver halide photographic material” (Fuji Photo Film Co., Ltd., priority 2002, dated 2004)

Tests used:
[1] = pKa printed beside the base in Table 1; cited from earlier work
[2] = Degree of dissolution of dye, visual observation after ultrasonic irradiation; type: physicochemical; design: key: good: when it was in a completely dissolved state; poor: when it left some residue; failed: when it was in a hardly dissolved state; conditions: 1.0 g dye in 200 ml 1:1 methanol/water, ultrasonic 30 min at 25° C.
[3] = pH value of dye solution measured with a pH-meter; type: physicochemical; conditions: 1.0 g dye in 200 ml 1:1 methanol/water
[4] = 1,8-diazabicyclo-7-undecene, 1.0 equivalents to dye
[5] = 2,4,6-trimethylpyridine, 1.0 equivalents to dye
[6] = N-methylmorpholine, 1.0 equivalents to dye
[7] = triethanolamine, 1.0 equivalents to dye
[8] = triethanolamine, 1.2 equivalents to dye
[9] = triethylamine, 0.8 equivalents to dye
[10] = triethylamine, 1.0 equivalents to dye
[11] = N,N-diisopropylethylamine, 1.0 equivalents to dye
[12] = pyridine, 1.0 equivalents to dye

Row | SMILES | Base (pKa) [1] | Degree of dissolution [2, 4] | Degree of dissolution ([2]; base absent) | Degree of dissolution [2, 7] | Degree of dissolution [2, 8] | Degree of dissolution [2, 9] | Degree of dissolution [2, 10] | pH Value of dye solution [3, 4] | pH Value of dye solution ([3]; base absent) | pH Value of dye solution [3, 7] | pH Value of dye solution [3, 8] | pH Value of dye solution [3, 9] | pH Value of dye solution [3, 10] | also measured
1 | Cc1cc(C)nc(C)c1 [2,4,6-Trimethylpyridine] | 2,4,6-trimethylpyridine (7.43) | – | – | – | – | – | – | – | – | – | – | – | – | –
2 | CN1CCOCC1 [N-methylmorpholine] | N-methylmorpholine (7.38) | – | – | – | – | – | – | – | – | – | – | – | – | –
3 | O=C(O)C[n+]1c(C=C2Sc3ccc(Cl)cc3N2CCCS(=O)(=O)[O-])sc2cc(Cl)sc21 [Dye S-37] | – | good | failed | good | good | poor | good | 11.0 | 6.2 | 7.4 | 7.5 | 7.1 | 9.6 | Degree of dissolution [2, 5]: good; Degree of dissolution [2, 6]: good; pH Value of dye solution [3, 5]: 7.2; pH Value of dye solution [3, 6]: 7.1
4 | O=C(O)C[n+]1c(C=C2Sc3ccc(Cl)cc3N2CCCS(=O)(=O)[O-])sc2ccc(Cl)cc21 [Dye S-14] | – | good | failed | good | good | poor | good | 10.8 | 6.1 | 7.3 | 7.4 | 6.9 | 9.4 | Degree of dissolution [2, 11]: good; Degree of dissolution [2, 12]: failed; pH Value of dye solution [3, 11]: 10.1; pH Value of dye solution [3, 12]: 5.7
5 | O=C(O)C[n+]1c(C=C2Sc3ccc(Br)cc3N2CCCS(=O)(=O)[O-])sc2ccsc21 [Dye S-39] | – | – | failed | good | good | poor | good | – | 6.3 | 7.5 | 7.6 | 7.4 | 9.7 | –
